In patent US12043613B2, “Inhibitors of SARM1” (Disarm Therapeutics, Inc., priority 2020, dated 2024) one finds IC50 data, which are given here for 49 molecules.

This assay addresses T1, SARM1 (ARM-SAM-TIR, full length SARM1) (Homo sapiens, UniProt Q6SZW1).
T1 sequence (Q6SZW1 with tags, fused parts or gaps): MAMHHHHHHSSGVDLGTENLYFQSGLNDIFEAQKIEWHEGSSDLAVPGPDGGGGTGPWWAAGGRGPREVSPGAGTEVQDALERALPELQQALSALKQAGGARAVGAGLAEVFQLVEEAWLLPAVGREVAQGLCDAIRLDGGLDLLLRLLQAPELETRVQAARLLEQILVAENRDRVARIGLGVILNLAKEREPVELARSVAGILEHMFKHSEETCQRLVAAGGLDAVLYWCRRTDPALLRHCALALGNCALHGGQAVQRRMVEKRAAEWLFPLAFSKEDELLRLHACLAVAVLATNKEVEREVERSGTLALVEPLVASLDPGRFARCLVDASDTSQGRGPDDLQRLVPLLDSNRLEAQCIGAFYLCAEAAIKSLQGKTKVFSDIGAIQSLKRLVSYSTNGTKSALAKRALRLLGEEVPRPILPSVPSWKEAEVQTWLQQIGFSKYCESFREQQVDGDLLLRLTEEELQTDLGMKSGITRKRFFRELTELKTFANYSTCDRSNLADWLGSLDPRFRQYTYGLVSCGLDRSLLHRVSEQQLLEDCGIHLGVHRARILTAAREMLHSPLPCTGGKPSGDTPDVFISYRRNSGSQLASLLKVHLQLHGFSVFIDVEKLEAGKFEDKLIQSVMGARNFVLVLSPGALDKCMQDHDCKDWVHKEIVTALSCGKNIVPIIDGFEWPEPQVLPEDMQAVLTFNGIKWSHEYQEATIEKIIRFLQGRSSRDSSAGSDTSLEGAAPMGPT
As to the kind of experiment: biochemical. Conditions: SARM1 IC50 (nM), ARM-SAM-TIR lysate 5 μg/mL from NRK1-HEK293T cells, 2 h pre-incubation, 5 uM NAD+, 2 hr room temperature.

The structures appear in SMILES notation.

Method: This assay makes use of full length SARM1, which encompasses the ARM, SAM and TIR domains.
Preparation of ARM-SAM-TIR lysate (STL)
NRK1-HEK293T cells were seeded onto 150 cm^2 plates at 20×10^6 cells per plate. The next day, the cells were transfected with 15 g ARM-SAM-TIR expression plasmid, SEQ ID NO: 1.
The cultures were supplemented with 1 mM NR at time of transfection to minimize toxicity from ARM-SAM-TIR overexpression. Forty-eight hours after transfection, cells were harvested, pelleted by centrifugation at 1,000 rpm (Sorvall ST 16R centrifuge, Thermo Fisher), and washed once with cold PBS (0.01 M phosphate buffered saline NaCl 0.138 M; KCl 0.0027 M; pH 7.4). The cells were resuspended in PBS with protease inhibitors (cOmplete™ protease inhibitor cocktail, Roche product #11873580001) and cell lysates were prepared by sonication (Branson Sonifer 450, output=3, 20 episodes of stroke). The lysates were centrifuged (12,000×g for 10 min at 4° C.) to remove cell debris and the supernatants (containing ARM-SAM-TIR protein) were stored at −80° C. for later use in the in vitro ARM-SAM-TIR NADase assay (see below). Protein concentration was determined by the Bicinchoninic (BCA) method and used to normalize lysate concentrations.
ARM-SAM-TIR IC50 assay of Formula I compounds.
The enzymatic assay was performed in a 384-well polypropylene plate in Dulbecco's PBS buffer in a final assay volume of 20 μL. ARM-SAM-TIR lysate with a final concentration of 5 μg/mL was pre-incubated with the respective compound at 1% DMSO final assay concentration over 2h at room temperature. The reaction was initiated by addition of 5 uM final assay concentration of NAD+ as substrate. After a 2 hr room temperature incubation, the reaction was terminated with 40 μL of stop solution of 7.5% trichloroactetic acid in acetonitrile. The NAD+ and ADPR concentrations were analyzed by a RapidFire High Throughput Mass Spectrometry System (Agilent Technologies, Santa Clara, Calif.) using an API4000 triple quadrupole mass spectrometer (AB Sciex Framingham, Mass.).

In turn, `N#Cc1c(-c2ccncc2)n[nH]c1N1CCC(Cc2ccc(Cl)cc2)C1=O` (stereo not shown) [Compound I-52] gave an IC50 of under 50 nM. With `O=C1C(Cc2ccc(Cl)cc2)CCCN1c1cc(-c2ccncc2)n[nH]1` (single isomer, unassigned) [I-19* (peak 1)], the IC50 was under 50 nM. For `N#Cc1c(-c2ccncc2)n[nH]c1N1CCC(Cc2ccc(Cl)nc2)C1=O` (stereo not shown) [Compound I-51] the value was 51 to 100 nM; for `O=C1C(Cc2ccc(F)nc2)CCCN1c1nnc(-c2ccncc2)[nH]1` (stereo not shown) [Compound I-23], under 50 nM.

In turn, `O=C1C(Cc2ccc(Cl)nc2)CCN1c1[nH]nc(-c2ccncc2)c1Cl` (single isomer, unassigned) [I-34* (peak 1)] displayed a concentration for half-maximal inhibition (IC50) of under 50 nM. Consider `O=C1C(Cc2ccc(Cl)cc2)CCN1c1nnc(-c2ccncc2)[nH]1` (single isomer, unassigned) [I-4* (peak 1)], for which the IC50 was under 50 nM. For `O=C1C(Cc2ccc(Cl)nc2)CCN1c1nnc(-c2ccncc2)[nH]1` (single isomer, unassigned) [I-9* (peak 2)] the value was 51 to 100 nM. For `N#Cc1ccc(CC2CCN(c3[nH]nc(-c4ccncc4)c3F)C2=O)cc1F` (stereo not shown) [Compound I-25] the value was 101 to 500 nM; for `O=C1C(Cc2ccc(Cl)cc2)CNCCN1c1nc(-c2ccncc2)n[nH]1` (single isomer, unassigned) [I-38* (peak 1)], 501 to 1000 nM; for `Cc1c(-c2ccncc2)n[nH]c1N1CCC(Cc2cnc(Cl)c(F)c2)C1=O` (stereo not shown) [Compound I-41], 101 to 500 nM. For `N#Cc1ccc(CC2CCCN(c3cc(-c4ccncc4)n[nH]3)C2=O)cn1` (stereo not shown) [Compound I-94] the value was 101 to 500 nM; for `O=C1C(Cc2ccc(Cl)cc2)OCCN1c1cc(-c2ccncc2)n[nH]1` (stereo not shown) [Compound I-47], 51 to 100 nM; for `O=C1C(Cc2ccc(Cl)nc2)CCCN1c1nnc(-c2ccncc2)[nH]1` (stereo not shown) [Compound I-55], 51 to 100 nM. Regarding `N#Cc1cc(CC2CCN(c3cc(-c4ccncc4)n[nH]3)C2=O)ccc1Cl` (stereo not shown) [Compound I-118], the IC50 fell in the range of 101 to 500 nM. With `O=C1C(Cc2ccc(Cl)nc2)NCN1c1cc(-c2ccncc2)n[nH]1` (stereo not shown) [Compound I-35] the figure was 501 to 1000 nM. In turn, `O=C1C(Cc2ccc(Cl)nc2)CCN1c1nnc(-c2ccncc2)[nH]1` (single isomer, unassigned) [I-9* (peak 1)] registered an IC50 of 101 to 500 nM.

The molecule `CC1(Cc2ccc(Cl)cc2)CCCN(c2nc(-c3ccncc3)n[nH]2)C1=O` (single isomer, unassigned) [I-54* (peak 1)] registered an IC50 of 501 to 1000 nM. With `N#Cc1cc(CC2CCCN(c3cc(-c4ccncc4)n[nH]3)C2=O)ccc1Cl` (stereo not shown) [Compound I-102] the figure was 51 to 100 nM.

Take `O=C1N(c2nnc(-c3ccncc3)[nH]2)CCC1(Cc1ccc(F)c(F)c1)Cc1ccc(F)c(F)c1` [Compound I-12]: the IC50 was over 1000 nM. `N#Cc1ccc(CC2CCCN(c3nc(-c4ccncc4)n[nH]3)C2=O)cc1` (stereo not shown) [Compound I-99] gave an IC50 of 101 to 500 nM. For the molecule `O=C1C(Cc2ccc(Cl)nc2)CCCCN1c1cc(-c2ccncc2)n[nH]1` (single isomer, unassigned) [I-40* (peak 2)], the IC50 lay within 101 to 500 nM. Consider `O=C1C(Cc2ccc(F)c(F)c2)CCCN1c1cc(-c2ccncc2)n[nH]1` (stereo not shown) [Compound I-22], for which the IC50 is under 50 nM.

Molecule `O=C1C(Cc2ccc(Cl)cc2)CCN1c1nnc(-c2ccncc2)[nH]1` (stereo not shown) [Compound I-4] gave an IC50 of under 50 nM. The molecule `N#Cc1ccc(CC2CCN(c3nc(-c4ccncc4)n[nH]3)C2=O)cn1` (stereo not shown) [Compound I-111] gave an IC50 of over 1000 nM.

Molecule `O=C1C(Cc2ccc(F)cc2)CCN1c1nnc(-c2ccncc2)[nH]1` (single isomer, unassigned) [I-7* (peak 2)] yielded an IC50 of under 50 nM. Consider `O=C1C(Cc2ccc(Cl)cc2)CCN1c1cc(-c2ccncc2)n[nH]1` (stereo not shown) [Compound I-15], for which the IC50 was under 50 nM. Molecule `O=C1C(Cc2cnc(Cl)c(F)c2)CCN1c1nnc(-c2ccncc2)[nH]1` (stereo not shown) [Compound I-18] returned an IC50 of 51 to 100 nM.

Take `N#Cc1ccc(CC2CCN(c3cc(-c4ccncc4)n[nH]3)C2=O)cc1F` (single isomer, unassigned) [I-37* (peak 1)]: the IC50 lay within 51 to 100 nM. `O=C1C(Cc2ccc(Cl)cc2)NCN1c1cc(-c2ccncc2)n[nH]1` (stereo not shown) [Compound I-59] returned an IC50 of 101 to 500 nM. On to `O=C1C(Cc2ccc(Cl)c(F)c2)CCCN1c1cc(-c2ccncc2)n[nH]1` (single isomer, unassigned) [I-20* (peak 1)], for which the IC50 is under 50 nM. Regarding `Cc1c(-c2ccncc2)n[nH]c1N1CCCC(Cc2ccc(Cl)cc2)C1=O` (stereo not shown) [Compound I-50], the IC50 was over 1000 nM. In the case of `N#Cc1cc(CC2CCCN(c3nc(-c4ccncc4)n[nH]3)C2=O)ccc1Cl` (stereo not shown) [Compound I-103], the IC50 was 101 to 500 nM. `O=C1C(Cc2ccc(F)c(F)c2)CCN1c1cc(-c2ccncc2)n[nH]1` (single isomer, unassigned) [I-16* (peak 1)] had an IC50 of under 50 nM.

For `O=C1C(Cc2cnc(Cl)c(F)c2)CCN1c1cc(-c2ccncc2)n[nH]1` (stereo not shown) [Compound I-65], the IC50 is under 50 nM.

As for `CC1(Cc2ccc(Cl)cc2)CCCN(c2nc(-c3ccncc3)n[nH]2)C1=O` (single isomer, unassigned) [I-54* (peak 2)], the IC50 fell in the range of 101 to 500 nM. Take `O=C1C(Cc2ccc(Cl)cc2)OCCN1c1cc(-c2ccncc2)n[nH]1` (single isomer, unassigned) [I-47* (peak 2)]: the IC50 is over 1000 nM. Molecule `N#Cc1ccc(CC2CCN(c3nnc(-c4ccncc4)[nH]3)C2=O)cc1F` (stereo not shown) [Compound I-26] displayed an IC50 of 101 to 500 nM. With `O=C1C(Cc2ccc(F)nc2)CCCN1c1[nH]nc(-c2ccncc2)c1Cl` (stereo not shown) [Compound I-28], the concentration for half-maximal inhibition (IC50) is over 1000 nM. For `N#Cc1ccc(CC2CCN(c3nnc(-c4ccncc4)[nH]3)C2=O)cc1F` (single isomer, unassigned) [I-26* (peak 1)] the value was 101 to 500 nM; for `O=C1C(Cc2ccc(Cl)nc2)CCN1c1nnc(-c2ccncc2)[nH]1` (stereo not shown) [Compound I-9], 101 to 500 nM; for `O=C1C(Cc2ccc(C(F)(F)F)nc2)CCCN1c1cc(-c2ccncc2)n[nH]1` (stereo not shown) [Compound I-96], 101 to 500 nM.

Molecule `O=C1C(Cc2ccc(F)nc2)CCN1c1cc(-c2ccncc2)n[nH]1` (single isomer, unassigned) [I-67* (peak 1)] came in with an IC50 of 51 to 100 nM. For `O=C1C(Cc2ccc(Cl)c(F)c2)CCN1c1nnc(-c2ccncc2)[nH]1` (single isomer, unassigned) [I-8* (peak 1)] the value was under 50 nM. Molecule `O=C1C(Cc2ccc(F)nc2)CCN1c1[nH]nc(-c2ccncc2)c1F` (single isomer, unassigned) [I-33* (peak 2)] displayed an IC50 of under 50 nM. The molecule `O=C1C(Cc2ccc(Cl)cc2)OCCN1c1nnc(-c2ccncc2)[nH]1` (stereo not shown) [Compound I-44] had an IC50 of under 50 nM. With `O=C1N(c2nc(-c3ccncc3)n[nH]2)CCC1(F)Cc1ccc(Cl)nc1` (stereo not shown) [Compound I-42] the figure was over 1000 nM. The molecule `O=C1C(Cc2ccc(Cl)c(F)c2)CCN1c1cc(-c2ccncc2)n[nH]1` (stereo not shown) [Compound I-14] gave an IC50 of under 50 nM. With `O=C1C(Cc2ccc(F)cc2)CCN1c1nnc(-c2ccncc2)[nH]1` (single isomer, unassigned) [I-7* (peak 1)], the IC50 was in the range of 101 to 500 nM. For `O=C1C(Cc2ccc(F)cc2)CCN1c1nnc(-c2ccncc2)[nH]1` (stereo not shown) [Compound I-7] the value was 101 to 500 nM.
